Data on two compounds can be found in patent US11028137B2, “Mutant islet amyloid polypeptides with improved solubility and methods for using the same” (priority 2017, dated 2021).

For series [1] the following is noted: pH 7.4.
Experimental: Dry peptides were dissolved into 10 mM PBS buffer at pH 7.4 at different initial concentrations, and were incubated for 7 days at 25° C. without stirring. Each sample was then centrifuged using a Beckman Coulter Microfuge 22R Centrifuge at 24° C. for 20 min. The relative centrifugal force used was 1.75×10^4 g. Solubility of each sample was approximated by measuring the absorbance of the corresponding supernatant at 280 nm measured using a Beckman Coulter DU 730 UV/Vis Spectrophotometer.
Each peptide tested was incubated in 10 mM PBS buffer at pH 7.4 for 7 days at three different concentrations (100 μM, 500 μM and 1 mM) and the solution was then centrifuged. The apparent solubility was represented by the absorbance of the supernatant of each sample measured at 280 nm. The extinction coefficients of all polypeptides are very similar at 280 nm since they all contain the same aromatic residues and each contains a disulfide bond. […] A peptide which is soluble at 1 mM and above will show a linear dependence of absorbance on initial concentration. A peptide which is less soluble will deviate from linearity. The peptides were centrifuged after 7 days and their apparent solubility measured by measuring the absorbance at 280 nm of the supernatant of each solution. The apparent concentration refers to the concentration which would be obtained if all of the peptide dissolved. The absorbance of the supernatant is directly proportion to the amount of peptide in solution.
Series [2] can be described thus: Transmission electron microscopy (TEM) of amyloid aggregates. The series is classed as physicochemical. To be noted: after 7 days of incubation, end of kinetic experiment. The protocol: Transmission Electron Microscopy (TEM). TEM images were recorded using an FEI Bio TwinG^2 Transmission Electron Microscope at the central microscopy center at Stony Brook University. 15 μL aliquots of the samples used for fluorescence assays were removed at the end of each kinetic experiment, blotted on a carbon formvar-coated 300-mesh copper grid for 1 min and then negatively stained with saturated uranyl acetate for 1 min. Images were taken at a 68,000× magnification and 100 nm under focus. Mutant-hIAPP polypeptides of the present disclosure were further analyzed using TEM. […] In contrast, no amyloid fibrils were formed after a 1 week (FIGS. 3B-E, left) or 6 week (FIGS. 3B-E, right) culture with the any of the mutant-hIAPP analogs tested.

The target in series [3] is T1, human calcitonin receptor (hCT(a)) (Homo sapiens, UniProt P30988).
T1 construct: expressed in transfected cells; host or cells: Cos-7 cells, transient transfection with PEI, pcDNA3.1 vectors
T1 sequence (P30988 25-474): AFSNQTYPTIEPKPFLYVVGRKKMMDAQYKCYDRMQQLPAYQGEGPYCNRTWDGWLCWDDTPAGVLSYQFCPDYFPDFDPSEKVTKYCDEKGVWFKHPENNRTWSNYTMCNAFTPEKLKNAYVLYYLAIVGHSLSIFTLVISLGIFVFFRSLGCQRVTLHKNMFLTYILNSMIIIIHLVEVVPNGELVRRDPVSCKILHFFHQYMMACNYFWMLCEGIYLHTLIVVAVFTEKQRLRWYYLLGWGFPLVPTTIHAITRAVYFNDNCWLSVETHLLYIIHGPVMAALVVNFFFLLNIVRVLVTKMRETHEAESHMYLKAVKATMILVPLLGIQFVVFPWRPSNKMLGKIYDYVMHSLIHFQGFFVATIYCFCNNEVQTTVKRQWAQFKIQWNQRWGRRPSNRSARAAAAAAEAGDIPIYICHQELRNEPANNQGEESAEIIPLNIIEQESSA
The series can be described thus: cAMP production (LANCE cAMP assay) in transfected Cos-7 cells. In kind it is cell-based. To be noted: Cos-7 cells expressing hCT(a); for EC50: cAMP production, mean ± spread, read-out: Human calcitonin receptor binding data pEC50 (converted). The protocol: (§1) Cell Culture and Transfection. Cos-7 cells were cultured and transfected for receptor activity assays as previously described in Bailey, R. J., and Hay, D. L. Peptides (2006) 27, pp. 1367-1375, the entire contents of which is incorporated herein by reference. Specifically, cells were cultured in Dulbucco's modified eagle medium (DMEM) with 8% heat-inactivated fetal bovine serum (FBS) and kept in a 37° C. humidified 95% air/5% CO2 incubator. Cells were plated at a density of 18,000-20,000 cells/well (depending on cell passage) in 96-well culture plate and returned to the incubator for approximately 18-24 hours. Transient transfections were carried out using polyethyleneimine (PEI) as described previously and maintained at 37° C. in a humidified 95% air/5% CO2 incubator for 36-48 hours. All DNA constructs used in this these were in pcDNA3.1 vectors.
(§2) cAMP Assay: Measurement of intracellular cAMP was achieved using a time-resolved fluorescent resonance energy transfer assay (LANCE cAMP assay, PerkinElmer), similar to the previously described Alphascreen assay as described in Gingell, J. J., et al. Peptides (2010) 31, pp. 1400-1404, with the following changes. Following stimulation with peptide agonist, cAMP assay media from the wells was thoroughly aspirated and 50 μl of ice-cold absolute ethanol added to each well. Plates were then placed in a −30° C. freezer for 10 minutes or overnight prior to assay, then removed and allowed to air dry in a fume hood for 1-2 hours. After ethanol evaporated from the plates, 50 μl of LANCE detection buffer (lysis buffer, 0.35% Triton X-100, 50 mM HEPES and 10 mM calcium chloride in ddH2O, pH 7.4) was added per well and left on a plate shaker for 10-15 minutes at room temperature. Meanwhile, a cAMP standard curve was generated using LANCE detection buffer and a serially diluted cAMP standard (50 μM) ranging from 1 μM to 10 pM. The serially diluted cAMP standards (5 μl) and cell lysates (5 μl) were transferred into 384-well opti-plates and sealed with a Sealplate®-A-384-well microplate adhesive film and briefly centrifuged (10 seconds, 500 rpm, 23° C.). A 1:200 dilution of LANCE assay Alexa Fluor® 647 anti-cAMP antibody was prepared in detection buffer and 5 μl added to each well. Plates were sealed and briefly centrifuged again (10 seconds, 500 rpm, 23° C.) and left to incubate, sealed for 30 minutes at room temperature. During this incubation, detection mix was made up consisting of detection buffer, Europium-W8044 labelled streptavidin (1:4500) and biotin-cAMP (1:1500). After 30 minutes incubation, 10 μl of detection mix was added to each well, plates were centrifuged (30 seconds, 500 rpm, 23° C.), sealed and left to incubate for 1 hour at room temperature. Plates were read after an overnight incubation on an Envision plate reader. A standard curve was included in each experiment to ensure accurate quantification of cAMP.
(§3) Data Analysis for Receptor Assays: Data were derived from independent experiments for statistical analysis and all experiments were performed and replicated. Quantification of cAMP was obtained from a standard curve included in each experiment and plotted using the software GraphPad Prism 6.0 (GraphPad Software Inc, San Diego, Calif., USA) with a non-linear regression 3-parameter logistic equation with a Hill Slope of 1 to determine the pEC50. The pEC50 values from the fits were combined from different experimental days and statistically tested for difference from the WT peptide using the Student's t-test with statistical significance defined as * p<0.05, ** p<0.01, *** p<0.001. Due to variability in amount of cAMP produced between experimental days, data were normalized to the control peptide for each experiment to obtain Emax values. For each analogue, data were normalized to the maximum (Emax) and minimum (Emin) responses of h-amylin. […]
(Cyclic AMP is a second messenger, typically raised through Gs and lowered through Gi signalling.)

The target in series [4] is T2, human amylin receptor (hAMY1(a)) (Homo sapiens, UniProt O60894+P30988).
T2 construct: expressed in transfected cells; host or cells: Cos-7 cells, transient transfection with PEI, pcDNA3.1 vectors
T2 sequence (O60894 27-148 partner, one chain of several): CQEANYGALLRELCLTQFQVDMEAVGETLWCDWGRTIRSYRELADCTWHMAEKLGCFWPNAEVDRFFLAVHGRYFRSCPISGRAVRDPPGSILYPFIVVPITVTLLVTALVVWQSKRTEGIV
Described as above. The series is classed as cell-based. To be noted: Cos-7 cells expressing hAMY1(a); for EC50: cAMP production, mean ± spread, read-out: Human Amylin1(a) receptor binding data pEC50 (converted). The protocol: as §1, §2, §3

Series [5] can be described thus: Thioflavin-T fluorescence assay of amyloid formation kinetics. To be noted: 16 μM peptide, 10 mM PBS pH 7.4, 25° C., no stirring; 1 week and 6 week incubations. In kind it is physicochemical. The protocol: Sample Preparation. Each peptide was dissolved into 100% hexafluoroisoproponal (HFIP) to make a 0.5 mM stock solution. Stock solutions were filtered using […] Acrodisc syringe filter with a GHP membrane and the required amount of peptide was lyophilized overnight to remove HFIP. Dry peptide was dissolved into the appropriate buffer for the fluorescence assays. Fluorescence Assays. Thioflavin-T binding assays, conducted without HFIP or stirring at 25° C., were utilized to monitor amyloid formation kinetics. Fluorescence measurements were performed using a Spectramax Gemini EM plate reader. Corning 96-well non-binding surface black plates with lids were used and were sealed with polyethylene sealing tape. Samples were prepared by dissolving dry peptide into 10 mM PBS buffer (pH 7.4) and 32 μM thioflavin-T solution immediately before the measurement. Thioflavin-T fluorescence was measured with 450 nm excitation and emission at 485 nm was monitored. The final concentrations were 16 μM peptides. After creating the mutant-hIAPP polypeptides of the present disclosure, applicants tested the propensity of the different analogs to form amyloid at pH 7.4 using thioflavin-T fluorescence assays (FIGS. 2A-D) and TEM (FIGS. 3A-E). […] Amyloid formation follows a sigmoidal time course consisting of a lag phase in which few, if any, fibrils are formed, followed by a growth phase and a saturation phase in which amyloid fibrils are in equilibrium with soluble peptide.

The conditions of series [6]: pH 7.
Experimental: 100 μL each solution was obtained immediately following dissolution with Novolin-N® and was centrifuged using a Beckman Coulter Microfuge (22R Centrifuge) at 24° C. for 20 minutes. The relative centrifugal force used was 1.75×104 g. Aliquots of each sample were immediately frozen and lyophilized. The remaining portion of each sample was not centrifuged and were incubated at 25° C. without stirring. Samples were collected again following the same procedures after 1 day, 7 days and 30 days. Dry samples were redissolved in 4:1 HPLC buffer mix (4A:1B, below) and immediately injected for liquid chromatography-mass spectroscopy (LC-MS) measurements. The HPLC buffers were (A) H2O (0.1% acetic acid and 0.02% TFA) and (B) CH3CN (0.1% acetic acid and 0.02% TFA). Solubility of each co-formulated sample was determined by measuring the absorbance from the liquid chromatogram traces at 215±8 nm and at 277±8 nm at each time point tested. points (0 hours, 24 hours, 7 days and 30 days post-formulation).

Where a SMILES comes first, the peptide text is derived from it.

Turning to `CC(C)C[C@H](NC(=O)[C@H](CCCNC(=N)N)NC(=O)[C@H](CCC(N)=O)NC(=O)[C@@H](NC(=O)[C@H](C)NC(=O)[C@@H]1CSSC[C@H](NC(=O)[C@@H](N)CCCCN)C(=O)N[C@@H](CC(N)=O)C(=O)N[C@@H]([C@@H](C)O)C(=O)N[C@@H](C)C(=O)N[C@@H]([C@@H](C)O)C(=O)N1)[C@@H](C)O)C(=O)N[C@@H](C)C(=O)N[C@@H](CC(N)=O)C(=O)N[C@@H](Cc1ccccc1)C(=O)N[C@@H](CC(C)C)C(=O)N[C@H](C(=O)N[C@@H](Cc1c[nH]cn1)C(=O)N[C@@H](CO)C(=O)N[C@@H](CO)C(=O)N[C@@H](CC(N)=O)C(=O)N[C@@H](CCCCN)C(=O)N[C@@H](Cc1ccccc1)C(=O)N1CCC[C@H]1C(=O)N[C@@H](C)C(=O)N1CCC[C@H]1C(=O)N[C@@H](CC(C)C)C(=O)N[C@@H](CO)C(=O)N[C@@H](CO)C(=O)N[C@H](C(=O)N[C@@H](CCCCN)C(=O)N[C@H](C(=O)NCC(=O)N[C@@H](CO)C(=O)N[C@@H](CC(N)=O)C(=O)N[C@H](C(=O)N[C@@H](Cc1ccc(O)cc1)C(N)=O)[C@@H](C)O)C(C)C)[C@@H](C)O)C(C)C` [SEQ ID NO: 10] (HELM PEPTIDE1{K.C.N.T.A.T.C.A.T.Q.R.L.A.N.F.L.V.H.S.S.N.K.F.P.A.P.L.S.S.T.K.V.G.S.N.T.Y.[am]}$PEPTIDE1,PEPTIDE1,2:R3-7:R3$$$V2.0), the “solubility at neutral pH (absorbance of supernatant at 280 nm)” value in series [1] is given as “more substantially soluble than wild-type hIAPP”. The “amyloid aggregates in TEM images” value in series [2] is recorded as “no aggregates are observed”. Moreover, in series [3], the “concentration-response of cAMP production compared with wild-type hIAPP” value was “do not significantly alter amylin or calcitonin receptor activity” and the EC50 was 5.01 nM. In addition, in series [4], the “concentration-response of cAMP production compared with wild-type hIAPP” value is listed as “do not significantly alter amylin or calcitonin receptor activity” and the EC50 is 3.39 nM. In addition, in series [5], the “amyloid formation monitored by thioflavin-T fluorescence” value was “none of the mutant hIAPP polypeptides forms amyloid”. Further, in series [6], the “solubility co-formulated with Novolin-N (absorbance at 215 nm and 277 nm, LC-MS)” value is “significantly higher absorbance when compared to both wild-type hIAPP and paramlintide”.
Turning to `CC[C@H](C)[C@H](NC(=O)[C@H](C)NC(=O)CNC(=O)[C@H](Cc1ccccc1)NC(=O)[C@H](CCCCN)NC(=O)[C@H](CC(N)=O)NC(=O)[C@H](CO)NC(=O)[C@H](CO)NC(=O)[C@H](Cc1c[nH]cn1)NC(=O)[C@@H](NC(=O)[C@H](CC(C)C)NC(=O)[C@H](Cc1ccccc1)NC(=O)[C@H](CC(N)=O)NC(=O)[C@H](C)NC(=O)[C@H](CC(C)C)NC(=O)[C@H](CCCNC(=N)N)NC(=O)[C@H](CCC(N)=O)NC(=O)[C@@H](NC(=O)[C@H](C)NC(=O)[C@@H]1CSSC[C@H](NC(=O)[C@@H](N)CCCCN)C(=O)N[C@@H](CC(N)=O)C(=O)N[C@@H]([C@@H](C)O)C(=O)N[C@@H](C)C(=O)N[C@@H]([C@@H](C)O)C(=O)N1)[C@@H](C)O)C(C)C)C(=O)N[C@@H](CC(C)C)C(=O)N1CCC[C@H]1C(=O)N[C@@H](CO)C(=O)N[C@H](C(=O)N[C@@H](CCCCN)C(=O)N[C@H](C(=O)NCC(=O)N[C@@H](CO)C(=O)N[C@@H](CC(N)=O)C(=O)N[C@H](C(=O)N[C@@H](Cc1ccc(O)cc1)C(N)=O)[C@@H](C)O)C(C)C)[C@@H](C)O` [SEQ ID NO: 22] (HELM PEPTIDE1{K.C.N.T.A.T.C.A.T.Q.R.L.A.N.F.L.V.H.S.S.N.K.F.G.A.I.L.P.S.T.K.V.G.S.N.T.Y.[am]}$PEPTIDE1,PEPTIDE1,2:R3-7:R3$$$V2.0), the “solubility at neutral pH (absorbance of supernatant at 280 nm)” value in series [1] was “more substantially soluble than wild-type hIAPP”. For the same compound, the “amyloid aggregates in TEM images” value in series [2] was “no aggregates are observed”. In addition, the “concentration-response of cAMP production compared with wild-type hIAPP” value in series [3] and in series [4] was “do not significantly alter amylin or calcitonin receptor activity” in each case. Besides, the figures for the EC50 in series [3] and in series [4] were 2.82 nM and 0.372 nM, respectively. Further, the “amyloid formation monitored by thioflavin-T fluorescence” value in series [5] is “none of the mutant hIAPP polypeptides forms amyloid”. The “solubility co-formulated with Novolin-N (absorbance at 215 nm and 277 nm, LC-MS)” value in series [6] is “significantly higher absorbance when compared to both wild-type hIAPP and paramlintide”.
